From the supplement of paper PMC8633005

Tests used:
Experiment in all cases: drug sensitivity score (DSS) (DSS (unitless, 0-50 scale)); higher = more sensitive (stronger viability inhibition); extreme values may be limits of the assay
Conditions in all cases: 72 h; culture: 2D
Bowes = system: Bowes
How it was run: (§1)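 Drug sensitivity scores, modified area-under-curve measures, were derived from dose-response curves fitted in the in-house Breeze software. The curves came from melanoma cell lines and patient-derived melanoma cultures (1000–1500 cells per well) grown in 2D in 384-well plates holding a 527-compound oncology library. Each compound was dissolved in DMSO or water and tested at five concentrations across a 10,000-fold range. Viability was read by CellTiter-Glo luminescence after 72 h at 37 °C.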

FM-MEL-2 = system: FM-MEL-2
How it was run: as §1

FM-MEL-3 = system: FM-MEL-3
How it was run: as §1

FM-MEL-6 = system: FM-MEL-6
How it was run: as §1

SK-MEL-28 = system: SK-MEL-28
How it was run: as §1

SK-MEL-2 = system: SK-MEL-2
How it was run: as §1

WM165 = system: WM165
How it was run: as §1

WM852 = system: WM852
How it was run: as §1

| SMILES | drug sensitivity score (Bowes) | drug sensitivity score (FM-MEL-2) | drug sensitivity score (FM-MEL-3) | drug sensitivity score (FM-MEL-6) | drug sensitivity score (SK-MEL-28) | drug sensitivity score (SK-MEL-2) | drug sensitivity score (WM165) | drug sensitivity score (WM852) |
| --- | --- | --- | --- | --- | --- | --- | --- | --- |
| CCC1(c2ccc(N)cc2)CCC(=O)NC1=O (stereo not drawn) [Aminoglutethimide] | 0 | 0 | 0 | 0 | 0 | 0 | 0 | 0 |
| COc1cc(NS(C)(=O)=O)ccc1Nc1c2ccccc2nc2ccccc12 [Amsacrine] | 0.5 | 4.9 | 5.8 | 5.5 | 6.4 | 2.8 | 16.9 | 0 |
| S=C(NCc1ccc2c(c1)OCO2)N1CCN(c2ncnc3c2oc2ccccc23)CC1 [Amuvatinib] | 3.9 | 0 | 4.9 | 0 | 0 | 0 | 1.2 | 6.6 |
| O=C1CN2Cc3c(ccc(Cl)c3Cl)N=C2N1 [Anagrelide] | 9.6 | 0 | 1.8 | 0 | 0 | 0 | 0 | 0 |
| CC(C)(C#N)c1cc(Cn2cncn2)cc(C(C)(C)C#N)c1 [Anastrozole] | 0 | 0 | 0 | 0 | 0 | 0 | 0 | 0 |
| CNC(=O)c1ccc(N2C(=S)N(c3cnc(C#N)c(C(F)(F)F)c3)C(=O)C23CCC3)cc1F [Apalutamide] | 0 | 0 | 0 | 0 | 0 | 0 | 0 | 0 |
| N#CC1(c2ccc(NC(=O)c3cccnc3NCc3ccncc3)cc2)CCCC1 [Apatinib] | 0 | 0.1 | 0 | 0 | 0 | 0 | 0 | 0 |
| O=C(Nc1ccc(OC(F)(F)Cl)cc1)c1cnc(N2CC[C@@H](O)C2)c(-c2cc[nH]n2)c1 [Asciminib] | 0 | 0.6 | 0.1 | 0 | 0 | 0 | 0 | 0.3 |
| CC(C)c1c(C(=O)Nc2ccccc2)c(-c2ccccc2)c(-c2ccc(F)cc2)n1CC[C@@H](O)C[C@@H](O)CC(=O)O [Atorvastatin] | 5.8 | 0 | 1.5 | 0 | 1 | 1.1 | 7.6 | 4.4 |
| CC(=O)OC[C@H]1O[C@@H]([S-])[C@H](OC(C)=O)[C@@H](OC(C)=O)[C@@H]1OC(C)=O.CCP(CC)CC.[Au+] [Auranofin] | 12.4 | 0.5 | 9 | 2.6 | 3.2 | 3.7 | 9.5 | 5.6 |
| CNC(=O)c1ccccc1Sc1ccc2c(/C=C/c3ccccn3)n[nH]c2c1 [Axitinib] | 0.1 | 2.1 | 2.6 | 0 | 0.1 | 0 | 4.6 | 0.1 |
| Nc1ncn([C@@H]2O[C@H](CO)[C@@H](O)[C@H]2O)c(=O)n1 [Azacitidine] | 2.6 | 3.1 | 8.6 | 4.7 | 0.4 | 1.6 | 4.2 | 0.1 |
| Cc1cc(-c2nc(-c3ccc(OC(F)(F)F)cc3)no2)nn1Cc1ccnc(N2CCN(C3CC3)CC2)c1 [BAY 87-2243] | 12.3 | 0.2 | 6.6 | 0 | 1.6 | 0 | 5.5 | 25.9 |
| Nc1nc(Nc2ccc3c(c2)CC[C@@H](N2CCCC2)CC3)nn1-c1cc2c(nn1)-c1ccccc1CCC2 [BGB324] | 3.2 | 2.6 | 5 | 5.4 | 6.7 | 5.6 | 5.7 | 6.9 |
| O=C1CCc2c(Oc3ccc4c(c3)[C@@H]3[C@H](O4)[C@H]3c3nc4cc(C(F)(F)F)ccc4[nH]3)ccnc2N1 [BGB-283] | 4 | 12.1 | 16.5 | 6.2 | 16.5 | 7.4 | 15.6 | 4.5 |
| CC[C@@H]1C(=O)N(C)c2cnc(Nc3ccc(C(=O)NC4CCN(C)CC4)cc3OC)nc2N1C1CCCC1 [BI 2536] | 19.7 | 1.7 | 4.3 | 6.7 | 3.5 | 10.5 | 19.6 | 18 |
| COc1c(C)cnc(Cn2cnc3c(Cl)nc(N)nc32)c1C [BIIB021] | 13.2 | 11.6 | 15.5 | 7.8 | 8.9 | 10.9 | 17.5 | 8.7 |
| CC1(C)C(C(=O)Nc2ccc(S(=O)(=O)c3ccc(NC(=O)C4C(C)(C)C4(C)C)cc3)cc2)C1(C)C [BRD7116] | 0.1 | 2.1 | 0.6 | 0 | 0 | 0 | 0 | 0 |
| O=C(Nc1cccc(Nc2ncc(Br)c(NCCc3cnc[nH]3)n2)c1)N1CCCC1 [BX-912] | 5.6 | 5.9 | 0.9 | 0.5 | 1.9 | 0 | 8.2 | 1.9 |
| Cc1ccc(NC(=O)c2ccc(CN3CC[C@H](N(C)C)C3)c(C(F)(F)F)c2)cc1Nc1nccc(-c2cncnc2)n1 [Bafetinib] | 0 | 2.3 | 1.7 | 0 | 1.3 | 0 | 2.9 | 0 |
| CCS(=O)(=O)N1CC(CC#N)(n2cc(-c3ncnc4[nH]ccc34)cn2)C1 [Baricitinib] | 0 | 0 | 0 | 0 | 0 | 0 | 0 | 0 |

| SMILES | drug sensitivity score (Bowes) | drug sensitivity score (FM-MEL-2) | drug sensitivity score (FM-MEL-3) | drug sensitivity score (FM-MEL-6) | drug sensitivity score (SK-MEL-28) | drug sensitivity score (SK-MEL-2) | drug sensitivity score (WM165) | drug sensitivity score (WM852) |
| --- | --- | --- | --- | --- | --- | --- | --- | --- |
| O=C(/C=C/c1cccc(S(=O)(=O)Nc2ccccc2)c1)NO [Belinostat] | 7.9 | 9.4 | 12.5 | 13.9 | 10.6 | 13.6 | 17.7 | 5.7 |
| N#CC(c1ccnc(OCc2ccc(CN3CCOCC3)cc2)n1)c1nc2ccccc2s1 (stereo not drawn) [Bentamapimod] | 1.4 | 3.9 | 5.9 | 2.8 | 0.8 | 0 | 1.1 | 0.1 |
| C=C(c1ccc(C(=O)O)cc1)c1cc2c(cc1C)C(C)(C)CCC2(C)C [Bexarotene] | 0 | 1.3 | 2.9 | 0.4 | 2.3 | 0 | 0 | 0 |
| CC(O)(CS(=O)(=O)c1ccc(F)cc1)C(=O)Nc1ccc(C#N)c(C(F)(F)F)c1 (stereo not drawn) [Bicalutamide] | 0 | 0 | 1.7 | 0 | 0.1 | 0 | 0 | 0.8 |
| CCNC(=O)CCC/C=C\C[C@@H]1[C@@H](/C=C/[C@@H](O)CCc2ccccc2)[C@H](O)C[C@@H]1O [Bimatoprost] | 0 | 0 | 0 | 0 | 0 | 0 | 0 | 0 |
| Cc1sc2c(c1C)C(c1ccc(Cl)cc1)=N[C@@H](CC(=O)Nc1ccc(O)cc1)c1nnc(C)n1-2 [Birabresib] | 4.5 | 6.2 | 7.6 | 6.7 | 2.9 | 0 | 12.1 | 0 |
| CC[C@H](NC(=O)[C@H](C)NC)C(=O)N1C[C@@H](O)C[C@H]1Cc1c(-c2[nH]c3cc(F)ccc3c2C[C@@H]2C[C@H](O)CN2C(=O)[C@H](CC)NC(=O)[C@H](C)NC)[nH]c2cc(F)ccc12 [Birinapant] | 0 | 8 | 1.4 | 3 | 0 | 3.9 | 0 | 0 |
| Cc1c(N)nc([C@H](CC(N)=O)NC[C@H](N)C(N)=O)nc1C(=O)N[C@H](C(=O)N[C@H](C)[C@@H](O)[C@H](C)C(=O)N[C@H](C(=O)NCCc1nc(-c2nc(C(=O)NCCC[S+](C)C)cs2)cs1)[C@@H](C)O)[C@@H](OC1OC(CO)C(O)C(O)C1OC1OC(CO)C(O)C(OC(N)=O)C1O)c1cnc[nH]1 (stereo partly drawn) [Bleomycin] | 0.9 | 2.4 | 5 | 2.1 | 1.8 | 0 | 9.4 | 0 |
| CC(C)C[C@H](NC(=O)[C@H](Cc1ccccc1)NC(=O)c1cnccn1)B(O)O [Bortezomib] | 24.9 | 14.1 | 28.4 | 29 | 27.3 | 26.5 | 27 | 11.8 |
| COc1cc(Nc2c(C#N)cnc3cc(OCCCN4CCN(C)CC4)c(OC)cc23)c(Cl)cc1Cl [Bosutinib] | 8.2 | 5 | 3.2 | 4.9 | 8.7 | 4.7 | 8.4 | 7.6 |
| COc1cc(N2CCC(N3CCN(C)CC3)CC2)ccc1Nc1ncc(Cl)c(Nc2ccccc2P(C)(C)=O)n1 [Brigatinib] | 1.1 | 0.9 | 3.3 | 1.6 | 0.5 | 0.2 | 1.5 | 3.1 |
| Cc1cc2c(F)c(Oc3ncnn4cc(OC[C@@H](C)O)c(C)c34)ccc2[nH]1 [Brivanib] | 0 | 0 | 0 | 0 | 0 | 0 | 0 | 0 |
| CCC/C=C/C=C/C(=O)O[C@H]1/C(=C/C(=O)OC)C[C@H]2C[C@H]([C@@H](C)O)OC(=O)C[C@H](O)C[C@@H]3C[C@H](OC(C)=O)C(C)(C)[C@](O)(C[C@@H]4C/C(=C/C(=O)OC)C[C@H](/C=C/C(C)(C)[C@]1(O)O2)O4)O3 [Bryostatin 1] | 1.7 | 0 | 0.1 | 5.8 | 1.9 | 0 | 2 | 4.3 |
| Nc1cc(C(F)(F)F)c(-c2cc(N3CCOCC3)nc(N3CCOCC3)n2)cn1 [Buparlisib] | 5.1 | 6.5 | 6.7 | 6 | 6.5 | 3.3 | 6.6 | 6 |
| Cc1nc2cccc(N)c2c(=O)n1C1CCC(=O)NC1=O (stereo not drawn) [CC122] | 0 | 0 | 0.2 | 1.3 | 0 | 0 | 0 | 0 |
| CCN1C(=O)CNc2ncc(-c3ccc(-c4nc[nH]n4)nc3C)nc21 [CC-115] | 8.2 | 10.7 | 8.5 | 9.5 | 6.5 | 9.8 | 10.4 | 5 |
| CO[C@H]1CC[C@H](N2C(=O)CNc3ncc(-c4ccc(C(C)(C)O)nc4)nc32)CC1 [CC-223] | 4.1 | 7.4 | 5.1 | 5.9 | 5.2 | 3.1 | 7.1 | 4.2 |
| COc1cc(C)[nH]c(=O)c1CNC(=O)c1c(C)n([C@H](C)C2CCOCC2)c2ccccc12 [CPI-360] | 0 | 0.2 | 0 | 0.6 | 0 | 0 | 0 | 0 |
| Cc1noc2c1-c1ccccc1C(c1ccc(Cl)cc1)=N[C@H]2CC(N)=O [CPI-0610] | 3.8 | 5.2 | 4.8 | 0 | 2.8 | 1 | 6.6 | 0 |
| O=C(O)CCCCC(CCSCc1ccccc1)SCc1ccccc1 (stereo not drawn) [CPI-613] | 0 | 0 | 0 | 0 | 0 | 0 | 0 | 0 |
